# According to US6875451B2, “Compositions and methods for the treatment of primary and metastatic neoplastic diseases using arsenic compounds” (PolaRx Biopharmaceuticals Inc., priority 1997, dated 2005):
# Experiments:
# Type in all cases: cell-based
# [1] = test system: EKVX; test: SRB growth assay, 6 days exposure, non-small cell lung cancer
# Method: (§1) Arsenic trioxide (1 mg/ml, 10 mg/ampoule, manufactured by Taylor Pharmaceuticals, Decatur, Ill.) was tested at five concentrations each at 10-fold dilutions, i.e., 10^−5, 10^−6, 10^−7, 10^−8 and 10^−9 μg/ml.
# (§2) The in vitro tests were performed by incubating the test cells in the presence of the indicated concentration of arsenic trioxide under standard culture conditions for a designated period of time, which is followed by a sulforhodamine B (SRB) protein assay to estimate cell viability or growth. The cell lines are organized into subpanels according to the origin of the cell lines, e.g., leukemia, breast cancer, etc. A description of the cell lines and method of testing is described in Monk et al. (1997, Anticancer Drug Des. 12:533-41) and Weinstein et al., (1997, Science 275:343-9), which are incorporated herein in their entirety.
# (§3) The measurement of an effect is expressed in Percentage Growth (PG). The measured effect of the compound on a cell line is calculated according to one or the other of the following two expressions: If (Mean ODtest−Mean ODzero)≧0. then PG=100×(Mean ODtest−Mean ODzero)/(Mean ODctrl−Mean ODzero) If (Mean ODtest−Mean ODzero)<0. then PG=100×(Mean ODtest−Mean ODzero)/(Mean ODzero where: • Mean ODzero=the average of optical density measurements of SRB-derived color just before exposure of cells to the test compounds; • Mean ODtest=the average of optical density measurements of SRB-derived color after exposure of cells to the test compound for a designated period of time; and • Mean ODctrl=the average of optical density measurements of SRB-derived color after with no exposure of cells to the test compound for a designated period of time
# (§4) The first two columns describe the subpanel (e.g., leukemia) and cell line (e.g., CCRF-CEM) involved. The next two columns list the Mean ODzero and Mean ODctrl; the next five columns list the Mean ODtest for each of five different concentrations. Each concentration is expressed as the log10 (molar or μg/ml). The next five columns list the calculated PGs for each concentration. The response parameters GI50, TGI and LC50 are interpolated values representing the concentrations at which the PG is +50, 0, and −50, respectively. Sometimes these response parameters cannot be obtained by interpolation. If, for instance, all of the PGs in a given row exceed +50, then none of the three parameters can be obtained by interpolation. In such a case, the value given for each response parameter is the highest concentration tested and is preceded by a “>” sign. This practice is extended similarly to the other possible situations where a response parameter cannot be obtained by interpolation.
# (§5) In the first set, the cells from 56 different cancer cell lines were exposed to five concentrations of arsenic trioxide continuously for two days prior to performing the SRB assay. In the second set, the cells from 50 different cell lines (a subset of the first 56 cell lines, plus the renal cancer cell line 786-0) were exposed continuously for six days prior to the SRB assay.
# [2] = test system: HOP-62; test: as above; conditions: HOP-62, 6 days
# Method: as §1, §2, §3, §4, §5
# [3] = test system: HOP-92; test: as above; conditions: HOP-92, 6 days
# Method: as §1, §2, §3, §4, §5
# [4] = test system: NCI-H322M; test: as above
# Method: as §1, §2, §3, §4, §5
# [5] = test system: NCI-H460; test: as above; conditions: NCI-H460, 6 days
# Method: as §1, §2, §3, §4, §5
# [6] = test system: NCI-H522; test: as above; conditions: NCI-H522, 6 days
# Method: as §1, §2, §3, §4, §5
# [7] = test system: HT29; test: SRB growth assay, 6 days exposure, colon cancer; conditions: HT29, 6 days
# Method: as §1, §2, §3, §4, §5
# [8] = test system: SW-620; test: SRB growth assay, 6 days exposure, colon cancer; conditions: SW-620, 6 days
# Method: as §1, §2, §3, §4, §5
# [9] = read-out: LC50 (the source's name)
substance,measurement,setting,value
arsenic trioxide,TGI,[1],4.22E−06
same,Mean Optical Densities,[1]; Log 10 Concentration −4.9,0.014
same,Percent Growth,[1]; Log 10 Concentration −4.9,−53%
same,Mean Optical Densities,[1]; Log 10 Concentration −5.9,0.414
same,Percent Growth,[1]; Log 10 Concentration −5.9,59%
same,Mean Optical Densities,[1]; Log 10 Concentration −6.9,0.628
same,Percent Growth,[1]; Log 10 Concentration −6.9,92%
same,Mean Optical Densities,[1]; Log 10 Concentration −7.9,0.601
same,Percent Growth,[1]; Log 10 Concentration −7.9,88%
same,Mean Optical Densities,[1]; Log 10 Concentration −8.9,0.573
same,Percent Growth,[1]; Log 10 Concentration −8.9,83%
same,Mean Optical Densities,[2]; Log 10 Concentration −4.9,0.014
same,Percent Growth,[2]; Log 10 Concentration −4.9,−77%
same,Mean Optical Densities,[2]; Log 10 Concentration −5.9,0.451
same,Percent Growth,[2]; Log 10 Concentration −5.9,40%
same,Mean Optical Densities,[2]; Log 10 Concentration −6.9,1.019
same,Percent Growth,[2]; Log 10 Concentration −6.9,99%
same,Mean Optical Densities,[2]; Log 10 Concentration −7.9,0.997
same,Percent Growth,[2]; Log 10 Concentration −7.9,97%
same,Mean Optical Densities,[2]; Log 10 Concentration −8.9,1.076
same,Percent Growth,[2]; Log 10 Concentration −8.9,105%
same,Mean Optical Densities,[3]; Log 10 Concentration −4.9,0.079
same,Percent Growth,[3]; Log 10 Concentration −4.9,−31%
same,Mean Optical Densities,[3]; Log 10 Concentration −5.9,1.229
same,Percent Growth,[3]; Log 10 Concentration −5.9,95%
same,Mean Optical Densities,[3]; Log 10 Concentration −6.9,1.319
same,Percent Growth,[3]; Log 10 Concentration −6.9,102%
same,Mean Optical Densities,[3]; Log 10 Concentration −7.9,1.834
same,Percent Growth,[3]; Log 10 Concentration −7.9,146%
same,Mean Optical Densities,[3]; Log 10 Concentration −8.9,1.455
same,Percent Growth,[3]; Log 10 Concentration −8.9,114%
same,CC50,[3]; [9],> 12.6 µM
same,Mean Optical Densities,[4]; Log 10 Concentration −4.9,0.054
same,Percent Growth,[4]; Log 10 Concentration −4.9,3%
same,Mean Optical Densities,[4]; Log 10 Concentration −5.9,0.552
same,Percent Growth,[4]; Log 10 Concentration −5.9,77%
same,Mean Optical Densities,[4]; Log 10 Concentration −6.9,0.674
same,Percent Growth,[4]; Log 10 Concentration −6.9,96%
same,Mean Optical Densities,[4]; Log 10 Concentration −7.9,0.620
same,Percent Growth,[4]; Log 10 Concentration −7.9,88%
same,Mean Optical Densities,[4]; Log 10 Concentration −8.9,0.680
same,Percent Growth,[4]; Log 10 Concentration −8.9,97%
same,CC50,[4]; [9],> 12.6 µM
same,Mean Optical Densities,[5]; Log 10 Concentration −4.9,0.062
same,Percent Growth,[5]; Log 10 Concentration −4.9,1%
same,Mean Optical Densities,[5]; Log 10 Concentration −5.9,2.535
same,Percent Growth,[5]; Log 10 Concentration −5.9,89%
same,Mean Optical Densities,[5]; Log 10 Concentration −6.9,2.792
same,Percent Growth,[5]; Log 10 Concentration −6.9,98%
same,Mean Optical Densities,[5]; Log 10 Concentration −7.9,2.806
same,Percent Growth,[5]; Log 10 Concentration −7.9,99%
same,Mean Optical Densities,[5]; Log 10 Concentration −8.9,2.797
same,Percent Growth,[5]; Log 10 Concentration −8.9,99%
same,CC50,[5]; [9],> 12.6 µM
same,Mean Optical Densities,[6]; Log 10 Concentration −4.9,0.028
same,Percent Growth,[6]; Log 10 Concentration −4.9,−84%
same,Mean Optical Densities,[6]; Log 10 Concentration −5.9,0.128
same,Percent Growth,[6]; Log 10 Concentration −5.9,−27%
same,Mean Optical Densities,[6]; Log 10 Concentration −6.9,1.191
same,Percent Growth,[6]; Log 10 Concentration −6.9,97%
same,Mean Optical Densities,[6]; Log 10 Concentration −7.9,0.535
same,Percent Growth,[6]; Log 10 Concentration −7.9,34%
same,Mean Optical Densities,[6]; Log 10 Concentration −8.9,1.269
same,Percent Growth,[6]; Log 10 Concentration −8.9,104%
same,TGI,[7],>1.26E−05
same,Mean Optical Densities,[7]; Log 10 Concentration −4.9,0.027
same,Percent Growth,[7]; Log 10 Concentration −4.9,0%
same,Mean Optical Densities,[7]; Log 10 Concentration −5.9,1.476
same,Percent Growth,[7]; Log 10 Concentration −5.9,48%
same,Mean Optical Densities,[7]; Log 10 Concentration −6.9,2.706
same,Percent Growth,[7]; Log 10 Concentration −6.9,88%
same,Mean Optical Densities,[7]; Log 10 Concentration −7.9,2.988
same,Percent Growth,[7]; Log 10 Concentration −7.9,98%
same,Mean Optical Densities,[7]; Log 10 Concentration −8.9,3.189
same,Percent Growth,[7]; Log 10 Concentration −8.9,104%
same,CC50,[7]; [9],> 12.6 µM
same,TGI,[8],3.43E−06
same,Mean Optical Densities,[8]; Log 10 Concentration −4.9,0.007
same,Percent Growth,[8]; Log 10 Concentration −4.9,−72%
same,Mean Optical Densities,[8]; Log 10 Concentration −5.9,1.475
same,Percent Growth,[8]; Log 10 Concentration −5.9,55%
same,Mean Optical Densities,[8]; Log 10 Concentration −6.9,2.337
same,Percent Growth,[8]; Log 10 Concentration −6.9,88%
same,Mean Optical Densities,[8]; Log 10 Concentration −7.9,2.308
same,Percent Growth,[8]; Log 10 Concentration −7.9,87%
same,Mean Optical Densities,[8]; Log 10 Concentration −8.9,2.613
same,Percent Growth,[8]; Log 10 Concentration −8.9,99%
